One data set deals with T1, BRD2 (Homo sapiens, UniProt P25440).
T1 construct: HiBiT, is appended to the N-terminus of endogenous BRD2, BRD3, and BRD4; endogenous in cells
The data set can be described thus: Live cell kinetic HiBiT degradation assay, HiBiT-BRD2 HEK293 cells. The note with it: for DC50: HiBiT-BRD2 CRISPR knock-in HEK293 cells, live cell kinetic degradation, 24 h, read-out: Dmax 50 BRD2; for λmax BRD2 (degradation rate): HiBiT-BRD2 knock-in HEK293 cells. Type of data set: cell-based. The procedure, abridged:
(§1)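 HEK293 cells with CRISPR-inserted N-terminal HiBiT on endogenous BRD2 or BRD3, stably expressing LgBiT, equilibrated 3 h with Endurazine at 37 °C, then treated with threefold PROTAC dilution series. Luminescence read every 7 min for 24 h, normalized to pre-read and DMSO; Dmax as lowest signal, rate constant by one-phase exponential decay, Dmax50 from Dmax-concentration fit.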

In a further data set the target is T2, BRD3 (Homo sapiens, UniProt Q15059).
T2 construct: HiBiT, is appended to the N-terminus of endogenous BRD2, BRD3, and BRD4; endogenous in cells
The data set can be described thus: Live cell kinetic HiBiT degradation assay, HiBiT-BRD3 HEK293 cells. Type of data set: cell-based. The note with it: for DC50: live cell kinetic degradation, read-out: Dmax 50 BRD3. Summed up: as §1
(With HiBiT, luminescence reflects the tagged protein that the partner subunit can reach.)

The target in a further data set is BRD4 (Homo sapiens, UniProt O60885). The data set is described as follows: Live cell kinetic HiBiT degradation assay, HiBiT-BRD4 HEK293 cells (parental, CRBN KO, VHL KO). Type of data set: cell-based. The note with it: for λmax BRD4 (degradation rate): HiBiT-BRD4 knock-in HEK293 cells. The procedure, abridged: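 Endogenous N-terminal HiBiT-BRD4 HEK293 cells stably expressing LgBiT (parental, CRBN KO, VHL KO) in CO2-independent medium with Endurazine, pre-equilibrated 3 h at 37 °C. Luminescence read every 7 min for 24 h after PROTAC addition (threefold series), normalized to pre-read and DMSO. Dmax = lowest reading; rate from one-phase decay; Dmax50 from Dmax-vs-concentration fit.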

The next data set deals with RKO WT cells. The data set can be described thus: cells. The note with it: for EC50: Homo sapiens. The data set is classed as cell-based, human.
Setting [1] is: HiBiT-BRD3 CRISPR knock-in HEK293 cells, 24 h.
[2] abbreviates: HiBiT-BRD3 knock-in HEK293 cells.
Setting [3] is: HiBiT-BRD4 CRISPR knock-in HEK293 cells, live cell kinetic degradation, 24 h, read-out: Dmax 50 BRD4.
Where [4] appears, read: WT RKO, 316 pM to 10 μM, n = 3 (Table S4), read-out: EC50 RKO.

Several values for one entry are separate records, joined by “and”; a condition that tells them apart may be missing. Equal entries are not always repeated. Where two headings read alike, the source gives them in different places.

T1 sequence (P25440 whole entry): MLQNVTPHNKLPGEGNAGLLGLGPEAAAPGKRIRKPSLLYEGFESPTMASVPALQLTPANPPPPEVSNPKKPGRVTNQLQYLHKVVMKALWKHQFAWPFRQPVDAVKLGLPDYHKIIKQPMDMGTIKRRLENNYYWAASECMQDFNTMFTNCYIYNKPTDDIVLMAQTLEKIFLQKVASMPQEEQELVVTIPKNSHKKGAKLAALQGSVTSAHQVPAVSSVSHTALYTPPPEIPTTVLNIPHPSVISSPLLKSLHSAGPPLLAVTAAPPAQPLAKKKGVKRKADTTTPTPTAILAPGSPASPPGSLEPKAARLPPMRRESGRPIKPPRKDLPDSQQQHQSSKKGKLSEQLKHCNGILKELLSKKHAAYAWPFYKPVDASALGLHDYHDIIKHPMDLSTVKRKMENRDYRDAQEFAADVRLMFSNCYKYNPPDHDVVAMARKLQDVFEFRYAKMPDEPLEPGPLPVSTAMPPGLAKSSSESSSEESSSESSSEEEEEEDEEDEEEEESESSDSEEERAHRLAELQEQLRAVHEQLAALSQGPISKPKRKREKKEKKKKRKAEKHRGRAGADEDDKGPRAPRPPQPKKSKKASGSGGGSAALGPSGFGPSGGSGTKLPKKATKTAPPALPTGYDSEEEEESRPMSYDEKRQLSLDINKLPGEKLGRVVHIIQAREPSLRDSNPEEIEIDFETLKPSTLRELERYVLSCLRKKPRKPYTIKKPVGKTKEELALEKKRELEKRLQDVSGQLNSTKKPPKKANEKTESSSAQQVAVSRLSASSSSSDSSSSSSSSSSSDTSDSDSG
T2 sequence (Q15059 whole entry): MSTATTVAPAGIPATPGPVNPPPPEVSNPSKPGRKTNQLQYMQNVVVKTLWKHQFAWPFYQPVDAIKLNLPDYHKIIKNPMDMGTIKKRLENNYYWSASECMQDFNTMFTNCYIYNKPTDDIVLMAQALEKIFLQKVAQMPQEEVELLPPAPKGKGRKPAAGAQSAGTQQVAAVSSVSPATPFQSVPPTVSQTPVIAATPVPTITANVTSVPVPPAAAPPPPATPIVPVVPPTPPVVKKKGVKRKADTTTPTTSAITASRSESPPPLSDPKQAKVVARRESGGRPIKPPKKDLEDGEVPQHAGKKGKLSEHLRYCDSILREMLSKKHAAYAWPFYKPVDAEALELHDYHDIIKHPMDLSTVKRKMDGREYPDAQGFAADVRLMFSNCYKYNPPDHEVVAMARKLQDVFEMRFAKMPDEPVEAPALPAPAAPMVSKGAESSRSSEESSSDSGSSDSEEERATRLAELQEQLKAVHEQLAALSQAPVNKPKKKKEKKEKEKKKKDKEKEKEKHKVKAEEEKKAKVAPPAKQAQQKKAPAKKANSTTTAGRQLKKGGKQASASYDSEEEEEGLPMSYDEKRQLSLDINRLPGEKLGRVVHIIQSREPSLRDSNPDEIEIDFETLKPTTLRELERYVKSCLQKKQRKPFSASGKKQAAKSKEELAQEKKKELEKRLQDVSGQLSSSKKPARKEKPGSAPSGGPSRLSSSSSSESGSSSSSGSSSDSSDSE

Take `Cc1ncsc1-c1ccc([C@H](C)NC(=O)[C@@H]2C[C@@H](O)CN2C(=O)[C@@H](NC(=O)COCC(C)(COCCOCCOCCNc2cc3c(cc2F)C(=O)N(C2CCC(=O)NC2=O)C3=O)COCCOCCOCCOC(=O)C[C@@H]2N=C(c3ccc(Cl)cc3)c3c(sc(C)c3C)-n3c(C)nnc32)C(C)(C)C)cc1` (mixture of isomers) [AB3067 (27), (17S)-11-((2-(2-(2-((2-(2,6-dioxopiperidin-3-yl)-6-fluoro-1,3-dioxoisoindolin-5-yl)amino)ethoxy)ethoxy)ethoxy)methyl)-17-((2S,4R)-4-hydroxy-2-(((S)-1-(4-(4-methylthiazol-5-yl)phenyl)ethyl)carbamoyl)pyrrolidine-1-carbonyl)-11,18,18-trimethyl-15-oxo-3,6,9,13-tetraoxa-16-azanonadecyl 2-((S)-4-(4-chlorophenyl)-2,3,9-trimethyl-6H-thieno[3,2-f][1,2,4]triazolo[4,3-a][1,4]diazepin-6-yl)acetate]: the DC50 at BRD2 was 2 nM; on BRD3 (setting [1]), less than 0.43 nM; on BRD3 (setting [2]) it was 0.085 nM. At BRD2, the “λmax BRD2 (degradation rate)” value was determined as 2.37 h⁻¹. For the same compound, the “λmax BRD3 (degradation rate)” value at BRD3 (setting [2]) is 3.31 h⁻¹. For the same compound, the “fold less Dmax 50 for BRD4 degradation in CRBN KO than in parent HiBiT-BRD4 cells” value at BRD4 (CRBN KO vs parental) is given as 60 fold. The EC50 on BRD4 (setting [3]) was 0.6 nM and 0.64 nM; on BRD4 (HiBiT-BRD4 HEK293 CRBN KO cells, 5 pM to 3 μM (Figure 9), read-out: Dmax 50 (HiBiT-BRD4: CRBN KO)), 38 nM; on BRD4 (HiBiT-BRD4 HEK293 VHL KO cells, 5 pM to 3 μM (Figure 9), read-out: Dmax 50 (HiBiT-BRD4: VHL KO)), 23 nM; in the data set with RKO WT cells (72 h, 316 pM to 10 μM, 3 days, n = 3 (Figures 5 and 8C, Table S5), read-out: EC50 RKO WT) it was 111 nM; with RKO WT cells (72 h, 500 pM to 10 μM, 3 days (Figure 10, Table S6), read-out: EC50 RKO WT), 73 nM; in the data set with RKO WT cells (RKO WT, 316 pM to 10 μM, n = 6, combination: dBET6 and MZ1 each from 5 μM (Table S7), read-out: EC50 RKO), 49 nM. Besides, the EC50 in the data set with RKO WT cells (setting [4]) was determined as 97.5 nM. In addition, the “λmax (HiBiT-BRD4: CRBN KO)” value at BRD4 (HiBiT-BRD4 HEK293 CRBN KO cells (Figure 9)) came to 1.0 h⁻¹. Moreover, at BRD4 (HiBiT-BRD4 HEK293 VHL KO cells (Figure 9)), the “λmax (HiBiT-BRD4: VHL KO)” value came out at 1.2 h⁻¹. Also, the “λmax (HiBiT-BRD4: Parental)” value on BRD4 (HiBiT-BRD4 HEK293 parental cells (Figure 9)) was 2.3 h⁻¹. Also, the “λmax BRD4 (degradation rate)” value at BRD4 is 2.68 h⁻¹. The “fold less Dmax 50 for BRD4 degradation in VHL KO than in parent HiBiT-BRD4 cells” value on BRD4 (VHL KO vs parental) is recorded as 40 fold. In the data set with RKO WT cells (human, 3 days), the “cytotoxicity compared with 1:1 mixture of dBET6 and MZ1 (in words)” value is “more cytoxic than the 1:1 mixture of dBET6 and MZ1”.
Consider `Cc1ncsc1-c1ccc(CNC(=O)[C@@H]2C[C@@H](O)CN2C(=O)[C@@H](NC(=O)COCC(C)(COCCOCCNc2cc3c(cc2F)C(=O)N(C2CCC(=O)NC2=O)C3=O)COCCOCCOC(=O)C[C@@H]2N=C(c3ccc(Cl)cc3)c3c(sc(C)c3C)-n3c(C)nnc32)C(C)(C)C)cc1` (mixture of isomers) [AB3125 (30), (14S)-8-((2-(2-((2-(2,6-dioxopiperidin-3-yl)-6-fluoro-1,3-dioxoisoindolin-5-yl)amino)ethoxy)ethoxy)methyl)-14-((2S,4R)-4-hydroxy-2-((4-(4-methylthiazol-5-yl)benzyl)carbamoyl)pyrrolidine-1-carbonyl)-8,15,15-trimethyl-12-oxo-3,6,10-trioxa-13-azahexadecyl 2-((S)-4-(4-chlorophenyl)-2,3,9-trimethyl-6H-thieno[3,2-f][1,2,4]triazolo[4,3-a][1,4]diazepin-6-yl)acetate], for which the DC50 was determined as 31 nM on BRD2 and 3 nM on BRD3 (setting [1]). Moreover, at BRD2, the “λmax BRD2 (degradation rate)” value is 2.63 h⁻¹. The “λmax BRD3 (degradation rate)” value at BRD3 (setting [2]) was 2.60 h⁻¹ and 2.6 h⁻¹. At BRD4 (23 vs 1, 26 vs 23, 30 vs 2, HiBiT-BRD4 HEK293 cells), the “fold increase in degradation of BRD4 (Dmax 50) vs matched pair” value is 6.7 fold. The EC50 on BRD4 (setting [3]) was found to be 8.2 nM; in the data set on RKO WT cells (setting [4]) it was 369 nM. Besides, on BRD4, the “λmax BRD4 (degradation rate)” value was 1.76 h⁻¹.
For the compound `Cc1ncsc1-c1ccc(CNC(=O)[C@@H]2C[C@@H](O)CN2C(=O)[C@@H](NC(=O)COCC(C)(COCCOCCNc2cc3c(cc2F)C(=O)N(C2CCC(=O)NC2=O)C3=O)COCCOCCOCCOC(=O)C[C@@H]2N=C(c3ccc(Cl)cc3)c3c(sc(C)c3C)-n3c(C)nnc32)C(C)(C)C)cc1` (mixture of isomers) [AB3126 (29), (17S)-11-((2-(2-((2-(2,6-dioxopiperidin-3-yl)-6-fluoro-1,3-dioxoisoindolin-5-yl)amino)ethoxy)ethoxy)methyl)-17-((2S,4R)-4-hydroxy-2-((4-(4-methylthiazol-5-yl)benzyl)carbamoyl)pyrrolidine-1-carbonyl)-11,18,18-trimethyl-15-oxo-3,6,9,13-tetraoxa-16-azanonadecyl 2-((S)-4-(4-chlorophenyl)-2,3,9-trimethyl-6H-thieno[3,2-f][1,2,4]triazolo[4,3-a][1,4]diazepin-6-yl)acetate], the DC50 on BRD2 came to 18 nM; on BRD3 (setting [1]) it was 1.9 nM. For the same compound, the “λmax BRD2 (degradation rate)” value at BRD2 amounted to 2.35 h⁻¹. The “λmax BRD3 (degradation rate)” value on BRD3 (setting [2]) was found to be 2.62 h⁻¹. For the same compound, the EC50 is 4 nM on BRD4 (setting [3]) and 195 nM with RKO WT cells (setting [4]). The “λmax BRD4 (degradation rate)” value on BRD4 came to 1.69 h⁻¹.

These data come from paper PMC11638965, “Leveraging Dual-Ligase Recruitment to Enhance Protein Degradation via a Heterotrivalent Proteolysis Targeting Chimera” (Journal of the American Chemical Society, 2024).
